Measured values: patent US9796711B2, “Substituted pyrazolo[3,4-b]pyridin-6-carboxylic acids and method of use” (AbbVie S.àr.l., priority 2015, dated 2017)

Target: T1, ΔF508-CFTR (Homo sapiens, UniProt P13569, DEL508-508)
T1 construct: host or cells: CFBE41o-, doxycycline-inducible
Assay: CFTR cell surface levels using HRP-tagged ΔF508-CFTR expressing CFBE cells, in the presence of a co-corrector
Format: cell-based
Details: HRP-tagged ΔF508-CFTR expressing CFBE cells, in the presence of 3 μM co-corrector; for EC50: read-out: EC50
Source text: Measuring CFTR Cell Surface Levels Using HRP-Tagged AF508-CFTR Expressing CFBE Cells
The HRP-tagged AF508-CFTR cell assay measures the expression of CFTR-ΔF508 at the plasma membrane. CFTR-ΔF508 has a folding defect leading to absence of protein at the plasma membrane. This assay is used to evaluate the capacity of compounds to increase the expression of CFTR-ΔF508 at the plasma membrane. The CFTR-ΔF508 is tagged with HRP (horse radish peroxidase enzyme) within the ECL4 (Extracellular loop 4) of CFTR (Phuan, P.-W. et al. Synergy-based small-molecule screen using a human lung epithelial cell line yields AF508-CFTR correctors that augment VX-809 maximal efficacy. Mol. Pharmacol. 86, 42-51 (2014)). When HRP-tagged AF508-CFTR is present at the plasma membrane, the HRP enzyme activity can be measured. The amount of CFTR-ΔF508 that can be rescued to the plasma membrane is correlated with the amount of functional enzyme that can be measured.
There are several ways to measure the capacity of compounds to rescue CFTR-ΔF508 to the plasma membrane; either compounds are evaluated on their own and the impact on plasma membrane levels is measured or compounds are evaluated in combination with a co-corrector, i.e. a compound that rescues CFTR-ΔF508 to the plasma membrane but rescue can be enhanced by addition of compounds due to a complementary mode of action.
Activity of Compounds in Combination with Co-Corrector:
For this purpose doxycycline-inducible AF508-CFTR-HRP expressing CFBE4lo-cells (obtained from Gergely Lukacs, McGill University) were maintained in MEM (Minimum Essential Medium, Gibco; 31095) supplemented with 10% fetal bovine serum (Hyclone; SV30160.03) under puromycin (3 μg/mL) and G418 selection (0.2 mg/mL). For compound testing, cells were seeded at 4000 cells/well in white 384-well plates (Greiner; 781080) in 50 μL of medium containing 0.5 μg/mL doxycycline and incubated for 68 hours at 37° C., 5% CO2. On day four, 10 μL of test compounds diluted in PBS (phosphate buffered saline) were added to the plates at a final DMSO concentration of 0.1%. In order to measure compound synergy with a co-corrector, 3 μM co-corrector (3-[(2R,4R)-4-({[1-(2,2-difluoro-1,3-benzodioxol-5-yl)cyclopropyl]carbonyl}amino)-7-methoxy-3,4-dihydro-2H-chromen-2-yl]benzoic acid) was added along with test compounds. All compound plates contained negative controls (DMSO) and positive controls (3 μM co-corrector). Cell plates were incubated at 33° C., 5% CO2 for 20 hours. On day five, the cells were washed five times with phosphate-buffered saline, and HRP activity was assayed by the addition of 50 μL/well of HRP substrate (SuperSignal™ West Pico Chemiluminescent Substrate, Thermo Scientific; 34080). After incubation for 15 minutes in the dark, the chemiluminescence was measured using a plate reader (EnVision®, Perkin Elmer). Raw data were normalized to percentage activity values using the equation: 100×(Sample−Negative control)/(Positive control−Negative Control).

T1 sequence (P13569 with tags, fused parts or gaps DEL508-508): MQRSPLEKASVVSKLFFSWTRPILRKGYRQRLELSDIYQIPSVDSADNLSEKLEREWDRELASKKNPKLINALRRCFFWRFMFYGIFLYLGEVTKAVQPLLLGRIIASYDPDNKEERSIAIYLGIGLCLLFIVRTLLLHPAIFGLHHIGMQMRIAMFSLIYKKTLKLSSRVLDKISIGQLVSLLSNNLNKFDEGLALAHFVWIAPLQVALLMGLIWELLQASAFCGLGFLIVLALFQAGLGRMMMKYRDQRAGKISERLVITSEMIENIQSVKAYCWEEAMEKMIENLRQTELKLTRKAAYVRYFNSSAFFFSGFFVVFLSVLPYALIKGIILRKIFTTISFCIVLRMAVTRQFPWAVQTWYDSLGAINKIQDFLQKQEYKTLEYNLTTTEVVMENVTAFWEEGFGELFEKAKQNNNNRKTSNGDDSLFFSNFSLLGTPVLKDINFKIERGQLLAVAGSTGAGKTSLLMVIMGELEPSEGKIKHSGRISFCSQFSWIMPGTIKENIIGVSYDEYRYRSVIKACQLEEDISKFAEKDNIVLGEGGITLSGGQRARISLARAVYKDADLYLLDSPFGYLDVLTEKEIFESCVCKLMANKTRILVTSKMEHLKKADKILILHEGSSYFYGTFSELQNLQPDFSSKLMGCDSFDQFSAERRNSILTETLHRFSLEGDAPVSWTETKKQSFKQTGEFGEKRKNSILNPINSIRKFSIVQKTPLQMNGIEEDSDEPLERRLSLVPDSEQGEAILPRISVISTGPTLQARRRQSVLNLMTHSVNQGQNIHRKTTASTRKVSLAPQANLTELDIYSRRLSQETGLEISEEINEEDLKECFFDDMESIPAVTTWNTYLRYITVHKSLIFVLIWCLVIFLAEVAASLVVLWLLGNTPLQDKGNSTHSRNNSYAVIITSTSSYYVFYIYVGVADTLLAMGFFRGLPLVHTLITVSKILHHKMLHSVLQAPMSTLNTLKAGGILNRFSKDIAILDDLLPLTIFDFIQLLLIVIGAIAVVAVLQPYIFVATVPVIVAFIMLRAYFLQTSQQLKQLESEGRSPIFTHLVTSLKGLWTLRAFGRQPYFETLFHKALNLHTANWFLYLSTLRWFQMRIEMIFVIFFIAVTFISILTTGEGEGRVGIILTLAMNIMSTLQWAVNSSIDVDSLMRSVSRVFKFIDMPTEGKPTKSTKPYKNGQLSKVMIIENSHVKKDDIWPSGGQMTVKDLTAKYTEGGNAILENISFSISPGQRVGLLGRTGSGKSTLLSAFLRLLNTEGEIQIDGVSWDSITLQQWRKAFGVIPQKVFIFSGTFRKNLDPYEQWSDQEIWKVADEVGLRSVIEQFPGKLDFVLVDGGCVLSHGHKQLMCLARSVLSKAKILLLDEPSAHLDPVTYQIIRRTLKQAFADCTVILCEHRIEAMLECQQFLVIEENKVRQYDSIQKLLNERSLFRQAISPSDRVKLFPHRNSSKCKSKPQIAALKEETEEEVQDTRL

Row | SMILES | % Activation [%] | EC50 [nM]
1 | CN1CCCC(CN(C)c2cc(C(=O)O)nc3c2c(C2CCC2)nn3-c2ccccc2)C1 (stereo not drawn) [compound 593, 3-cyclobutyl-4-{methyl [(1-methylpiperidin-3-yl)methyl]amino}-1-phenyl-1H-pyrazolo[3,4-b]pyridine-6-carboxylic acid] | 313.3 | 1170
2 | O=C(O)c1cc(OC2CCCC2)c2c(C3CCC3)nn(-c3ccccc3)c2n1 [compound 597, 3-cyclobutyl-4-(cyclopentyloxy)-1-phenyl-1H-pyrazolo[3,4-b]pyridine-6-carboxylic acid] | 342.5 | 230
3 | O=C(O)c1cc(O[C@H]2C[C@@H](N3CCC3)C2)c2c(C3CCC3)nn(-c3ccccc3)c2n1 [compound 598, 4-{[cis-3-(azetidin-1-yl)cyclobutyl]oxy}-3-cyclobutyl-1-phenyl-1H-pyrazolo[3,4-b]pyridine-6-carboxylic acid] | 274.4 | 3330
4 | O=C(O)c1cc(OCC2CC(F)(F)C2)c2c(C3CCC3)nn(-c3ccccc3)c2n1 [compound 600, 3-cyclobutyl-4-[(3,3-difluorocyclobutyl)methoxy]-1-phenyl-1H-pyrazolo[3,4-b]pyridine-6-carboxylic acid] | 334.3 | 383
5 | CN1CC(Oc2cc(C(=O)O)nc3c2c(C2CCC2)nn3-c2ccccc2)C1 [compound 601, 3-cyclobutyl-4-[(1-methylazetidin-3-yl)oxy]-1-phenyl-1H-pyrazolo[3,4-b]pyridine-6-carboxylic acid] | 173.6 | 2480
6 | CC(C)c1nn(-c2ccc(F)cc2)c2nc(C(=O)O)cc(OCCCN(C)C)c12 [compound 606, 4-[3-(dimethylamino)propoxy]-1-(4-fluorophenyl)-3-(propan-2-yl)-1H-pyrazolo[3,4-b]pyridine-6-carboxylic acid] | 199.7 | 1770
7 | CC(C)c1nn(-c2ccc(F)cc2)c2nc(C(=O)O)cc(OCCCN3CCOCC3)c12 [compound 607, 1-(4-fluorophenyl)-4-[3-(morpholin-4-yl)propoxy]-3-(propan-2-yl)-1H-pyrazolo[3,4-b]pyridine-6-carboxylic acid] | 305.5 | 1980
8 | CC(C)c1nn(-c2ccc(F)cc2)c2nc(C(=O)O)cc(OCC3(C)COC3)c12 [compound 608, 1-(4-fluorophenyl)-4-[(3-methyloxetan-3-yl)methoxy]-3-(propan-2-yl)-1H-pyrazolo[3,4-b]pyridine-6-carboxylic acid] | 338.1 | 683
9 | CC(C)c1nn(-c2ccc(F)cc2)c2nc(C(=O)O)cc(OCC3CCCO3)c12 (stereo not drawn) [compound 609, 1-(4-fluorophenyl)-4-[(oxolan-2-yl)methoxy]-3-(propan-2-yl)-1H-pyrazolo[3,4-b]pyridine-6-carboxylic acid] | 336.4 | 1040
10 | CC(C)c1nn(-c2ccc(F)cc2)c2nc(C(=O)O)cc(OCCCN3CCCCC3)c12 [compound 653, 1-(4-fluorophenyl)-4-[3-(piperidin-1-yl)propoxy]-3-(propan-2-yl)-1H-pyrazolo[3,4-b]pyridine-6-carboxylic acid] | 260.3 | 3330
11 | O=C(O)c1cc(OCC2CCOCC2)c2c(C3CCC3)nn(-c3ccc(F)cc3)c2n1 [compound 658, 3-cyclobutyl-1-(4-fluorophenyl)-4-[(oxan-4-yl)methoxy]-1H-pyrazolo[3,4-b]pyridine-6-carboxylic acid] | 345.9 | 455
12 | CC(C)(O)C1CCN(c2cc(C(=O)O)nc3c2c(C2CCC2)nn3-c2ccccc2)CC1 [compound 659, 3-cyclobutyl-4-[4-(2-hydroxypropan-2-yl)piperidin-1-yl]-1-phenyl-1H-pyrazolo[3,4-b]pyridine-6-carboxylic acid] | 424.5 | 69.5
13 | CC(C)c1nn(-c2ccc(F)cc2)c2nc(C(=O)O)cc(N3CCC(N(C)C)CC3)c12 [compound 660, 4-[4-(dimethylamino)piperidin-1-yl]-1-(4-fluorophenyl)-3-(propan-2-yl)-1H-pyrazolo[3,4-b]pyridine-6-carboxylic acid] | 284.47 | 3330
14 | CC(=O)N1CCC(COc2cc(C(=O)O)nc3c2c(C(C)C)nn3-c2ccc(F)cc2)CC1 [compound 662, 4-[(1-acetylpiperidin-4-yl)methoxy]-1-(4-fluorophenyl)-3-(propan-2-yl)-1H-pyrazolo[3,4-b]pyridine-6-carboxylic acid] | 310.6 | 2300
15 | COC(=O)N1CCC(COc2cc(C(=O)O)nc3c2c(C(C)C)nn3-c2ccc(F)cc2)CC1 [compound 663, 1-(4-fluorophenyl)-4-{[1-(methoxycarbonyl)piperidin-4-yl]methoxy}-3-(propan-2-yl)-1H-pyrazolo[3,4-b]pyridine-6-carboxylic acid] | 315.5 | 90.9
16 | CC(C)c1nn(-c2ccc(F)cc2)c2nc(C(=O)O)cc(NC(=O)C3CCOCC3)c12 [compound 664, 1-(4-fluorophenyl)-4-[(oxane-4-carbonyl)amino]-3-(propan-2-yl)-1H-pyrazolo[3,4-b]pyridine-6-carboxylic acid] | 120.6 | > 10000
17 | N#CCC1(O)CCN(c2cc(C(=O)O)nc3c2c(C2CCC2)nn3-c2ccccc2)CC1 [compound 665, 4-[4-(cyanomethyl)-4-hydroxypiperidin-1-yl]-3-cyclobutyl-1-phenyl-1H-pyrazolo[3,4-b]pyridine-6-carboxylic acid] | 330.43 | 1860
18 | CCOCC1(F)CCN(c2cc(C(=O)O)nc3c2c(C(C)C)nn3-c2ccc(F)cc2)CC1 [compound 666, 4-[4-(ethoxymethyl)-4-fluoropiperidin-1-yl]-1-(4-fluorophenyl)-3-(propan-2-yl)-1H-pyrazolo[3,4-b]pyridine-6-carboxylic acid] | 338.35 | 253
19 | COCCOCC1(F)CCN(c2cc(C(=O)O)nc3c2c(C(C)C)nn3-c2ccc(F)cc2)CC1 [compound 667, 4-{4-fluoro-4-[(2-methoxyethoxy)methyl]piperidin-1-yl}-1-(4-fluorophenyl)-3-(propan-2-yl)-1H-pyrazolo[3,4-b]pyridine-6-carboxylic acid] | 339.85 | 462
20 | CC(C)c1nn(-c2ccc(F)cc2)c2nc(C(=O)O)cc(N3CC[C@@H](O)[C@H](F)C3)c12 [compound 668, 4-[(3R,4R)-3-fluoro-4-hydroxypiperidin-1-yl]-1-(4-fluorophenyl)-3-(propan-2-yl)-1H-pyrazolo[3,4-b]pyridine-6-carboxylic acid] | 341.65 | 2360
21 | COCC1(F)CCN(c2cc(C(=O)O)nc3c2c(C(C)C)nn3-c2ccc(F)cc2)CC1 [compound 669, 4-[4-fluoro-4-(methoxymethyl)piperidin-1-yl]-1-(4-fluorophenyl)-3-(propan-2-yl)-1H-pyrazolo[3,4-b]pyridine-6-carboxylic acid] | 315.5 | 795
22 | COCCOCC1(F)CCCN(c2cc(C(=O)O)nc3c2c(C(C)C)nn3-c2ccc(F)cc2)C1 (stereo not drawn) [compound 670, 4-{3-fluoro-3-[(2-methoxyethoxy)methyl]piperidin-1-yl}-1-(4-fluorophenyl)-3-(propan-2-yl)-1H-pyrazolo[3,4-b]pyridine-6-carboxylic acid] | 397.3 | 218
23 | O=C(O)c1cc(N2CCS(=O)(=O)CC2)c2c(C3CCC3)nn(-c3ccccc3)c2n1 [compound 673, 3-cyclobutyl-4-(1,1-dioxo-1λ^6,4-thiazinan-4-yl)-1-phenyl-1H-pyrazolo[3,4-b]pyridine-6-carboxylic acid] | 163.25 | 3330
24 | O=C(O)c1cc(N2CC(N3CCCC3)C2)c2c(C3CCC3)nn(-c3ccccc3)c2n1 [compound 680, 3-cyclobutyl-1-phenyl-4-[3-(pyrrolidin-1-yl)azetidin-1-yl]-1H-pyrazolo[3,4-b]pyridine-6-carboxylic acid] | 236.7 | 1360
